Results as given in PubChem BioAssay AID504646 (Southern Research Specialized Biocontainment Screening …, 2011).
Calls of active or inactive are those of the source. No rule for the calls is given here.

Assay: M. tuberculosis growth inhibition in 7H9, dose response, 7H9 media, purified and synthesized samples, set 3 (AID 504646)
Conditions: Mycobacterium tuberculosis growth in 7H9 media; at 25 µM (top of the series)

Structure (SMILES) | growth inhibition
CCOC(=O)C(CC)Sc1ncnc2c1nnn2-c1ccc(F)cc1 (stereo not given) | 12.2% (inactive)
Oc1ccccc1/C=N/Nc1ccnc(SCc2ccccc2)n1 | 2.73% (inactive)
CCSc1nc2ccccc2c(=O)[nH]1 | -4.76% (inactive)
COC(=O)C(Nc1nc(SCC(=O)NC2CCCCC2)nc2ccccc12)c1ccccc1 (stereo not given) | -0.22% (inactive)
CCOc1ccc(NC(=O)CSc2nc(N)c(-c3ccccc3)c(=O)[nH]2)cc1 | 0.19% (inactive)
CCOC(=O)N1CCC(Nc2c(Nc3cccc(CC)c3)c(=O)c2=O)CC1 | 17.3% (inactive)
COc1ccc(-c2noc(CSc3nc(N)c(-c4ccccc4)c(=O)[nH]3)n2)cc1OC | -5.09% (inactive)
CCOc1ccc(NC(=O)c2ccc(CNc3c(N4CCCC4)c(=O)c3=O)cc2)cc1 | 0.32% (inactive)
CCc1cc(=O)[nH]c(SCC(=O)Nc2ccc3c(c2)OCCO3)n1 | 3.59% (inactive)
CCSc1nc(C)c(C)c(=O)[nH]1 | 1.07% (inactive)
Cc1ccc(NC(=O)CSc2nc(N)c(-c3ccccc3)c(=O)[nH]2)cc1Cl | -2.34% (inactive)
CCc1c(O)nc(SCC(=O)Nc2ccc(OC)cc2)n(C2CCCCC2)c1=O | -2.19% (inactive)
O=c1[nH]c(=S)[nH]c2ccccc12 | -8.06% (inactive)
Cc1cccc(N2CCN(C(=O)c3ccc(CNc4c(N5CCC(C)CC5)c(=O)c4=O)cc3)CC2C)c1 (stereo not given) | -1.5% (inactive)
Cc1ccc(NC(=O)CSc2nc(N)cc(=O)[nH]2)cc1Cl | 2.55% (inactive)
COc1ccc(NC(=O)CSc2nc(NS(=O)(=O)c3ccc(C)cc3)cc(=O)[nH]2)cc1 | 1.44% (inactive)
Cc1cc(=O)[nH]c(SCC(=O)Nc2ncc(S(=O)(=O)c3ccc([N+](=O)[O-])cc3)s2)n1 | -1.38% (inactive)
O=C(C1CCC(CNc2c(N3CCCCC3)c(=O)c2=O)CC1)N1CCCCC1 (stereo not given) | -2.59% (inactive)
CCC(Sc1nc(=O)cc(N)n1-c1ccccc1)C(=O)Nc1cc(C)on1 (stereo not given) | -3.83% (inactive)
Cc1c[nH]c(=S)[nH]c1=O | -6.2% (inactive)
